Results on ten compounds are retold here after patent US6451828B1, “Selective inhibition of glutaminase by bis-thiadiazoles” (priority 2000, dated 2002).

pIC50: −log10 of the molar value.

As usually defined, the pIC50 is −log10 of the IC50, conventionally taken in molar units.

One assay has as its target T1, human kidney glutaminase (Homo sapiens, UniProt O94925).
T1 construct: made in house; host or cells: SF9 insect cells (alternatively HEK human kidney cells); cell lysate
T1 sequence (O94925 55-669): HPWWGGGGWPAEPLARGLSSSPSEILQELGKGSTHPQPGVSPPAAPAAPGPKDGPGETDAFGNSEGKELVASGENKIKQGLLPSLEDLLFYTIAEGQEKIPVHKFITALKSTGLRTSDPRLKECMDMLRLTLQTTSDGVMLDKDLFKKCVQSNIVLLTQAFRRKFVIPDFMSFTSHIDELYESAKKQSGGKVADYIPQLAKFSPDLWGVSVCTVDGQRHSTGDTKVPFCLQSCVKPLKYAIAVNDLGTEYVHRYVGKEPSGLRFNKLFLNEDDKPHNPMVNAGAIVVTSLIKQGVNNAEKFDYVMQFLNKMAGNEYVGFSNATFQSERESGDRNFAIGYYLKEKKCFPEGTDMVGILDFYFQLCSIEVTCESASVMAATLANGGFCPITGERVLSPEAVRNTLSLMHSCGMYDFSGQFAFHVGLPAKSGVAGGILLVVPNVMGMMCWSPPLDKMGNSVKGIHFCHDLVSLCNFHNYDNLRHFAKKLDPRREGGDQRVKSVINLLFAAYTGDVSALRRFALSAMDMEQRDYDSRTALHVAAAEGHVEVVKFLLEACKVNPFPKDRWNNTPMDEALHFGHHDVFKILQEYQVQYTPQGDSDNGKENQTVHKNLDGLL
Description: Glutaminase inhibition: cell free assay.
Details: not given
It counts as biochemical. How it is done: Compounds of formula I were tested for inhibition of human kidney glutaminase as described in Example 2.
Glutaminase Inhibition: Cell Free Assay
Glutaminase gene-transfected SF9 cells were collected in a 50-mL polypropylene conical tube by centrifugation at 500×g for 10 min (Eppendorf Centrifuge 5810R, F34-6-38 rotor). The supernatant was discarded, and the cell pellet was stored at −80° C. For preparation of the lysate, the cells were thawed on ice and resuspended by pipetting in 0.8 mL cold lysis buffer with 0.5 mM 4-(2-aminoethyl)- benzenesulfonyl fluoride (AEBSF), a serine protease inhibitor. The suspension was stored in ice for 20 min, then subjected to two freeze-thaw cycles (liquid nitrogen followed by a room temperature water bath).
The volume of the cell homogenate was measured, and 1/3 volume of 1 M sucrose was added, to give a final concentration of 0.25 M sucrose. Aliquots 100 μL in volume were placed in 1.5 mL microtubes and stored at −80° C.
Alternatively, HEK (human kidney) cells were used. The medium was removed by aspiration, 5 mL PBS/1 mM EDTA was added, and the culture was incubate for 3 min to allow cells to detach. The cells were collected in a 50-mL conical tube using Eppendorf Centrifuge 5810R, F34-6-38 rotor, and spun at 200×g for 5 min. The supernatant was discarded, and the cell pellet was resuspended pipetting (approximately 0.12 g wet weight) in 0.3 mL lysis buffer with 0.5 mM AEBSF. The tube was left in ice for 20 min. […] subjected to two freeze-thaw cycles as described above. Aliquots 100 μL in volume were placed in 1.5 mL microtubes and stored at −80° C.
The activity of the enzyme was determined colorimetrically. One unit of enzyme activity is defined as the amount of enzyme required to generate net OD 540nm=0.6 in a total reaction volume of 220 μL in one hour at room temperature.
Assay plates were prepared containing 2 μL test compound in DMSO/well. The enzyme was diluted to 1 unit (liver) or 0.8 unit (kidney)/100 μL in glutaminase assay buffer, and 100 μl diluted enzyme was added to each well of the assay plate by Multidrop (Labsystems). The contents were mixed by shaking at full speed for 1 min on TiterMix 100 (Brinkmann). The plates were preincubated at room temperature (RT) for 20 min to allow binding of test compounds to glutaminase, and 50 μL glutamine solution (7 mM in assay buffer) was added to each well by Multidrop. The contents were shaken at full speed for 30 sec on TiterMix 100 (Brinkmann), and the plates were then incubated at RT for 60 min (liver) or 90 min (kidney). To stop the reactions, 20 μL HCl (0.3 N) was added to each well by Multidrop and mixed immediately by shaking for 30 sec on TiterMix 100.
For quantification, glutamate (formed by glutaminase-catalyzed hydrolysis of glutamine) is oxidized to 2-oxoglutarate by a second enzyme, glutamate dehydrogenase (GDH), with the concomitant production of the reduced form of nicotinamide adenine dinucleotide (NADH). Reduction of nitro blue tetrazolium (NBT) in the assay solution by NADH, catalyzed by phenazine methosulphate (PMS), results in the formation of a blue-purple formazan. The absorption of formazan at 540 nm is linearly proportional to the concentration of glutamate up to 200 μM.
NBT/GDH reagent (50 μl) was added to each well by Multidrop and mixed by shaking for 30 sec on TiterMix 100, and the plates were incubated at RT for 20 min to allow color formation by the GDH reaction. Glutamate concentration was determined from formazan concentration as determined by reading OD540 nm on a SpectraMax 340.
For `O=C(Nc1nnc(CCSCCc2nnc(NC(=O)c3ccco3)s2)s1)c1ccco1` [SNX-1836], the negative-log IC50 (pIC50) is 5.95. For `CCOC(=O)Nc1nnc(CCSCCc2nnc(NC(=O)OCC)s2)s1` [SNX-1852], the pIC50 was 5.75. Consider `O=C(Nc1nnc(CCSCCc2nnc(NC(=O)c3ccccc3)s2)s1)c1ccccc1` [SNX-1830], for which the negative logarithm of the IC50 (pIC50) is 5.97. In turn, `COc1ccc(C(=O)Nc2nnc(CCSCCc3nnc(NC(=O)c4ccc(OC)cc4)s3)s2)cc1` [SNX-1832] had a pIC50 of 6.34.

As for `COc1ccccc1C(=O)Nc1nnc(CCSCCc2nnc(NC(=O)c3ccccc3OC)s2)s1` [SNX-1855], the pIC50 is 5.31. For the compound `CC(C)(C)C(=O)Nc1nnc(CCSCCc2nnc(NC(=O)C(C)(C)C)s2)s1` [SNX-1851], the pIC50 was 5.78. On the same count and under the same terms, in the case of `Cc1cccc(C(=O)Nc2nnc(CCSCCc3nnc(NC(=O)c4cccc(C)c4)s3)s2)c1` [SNX-1831] it was 5.95; in that of `O=C(Nc1nnc(CCSCCc2nnc(NC(=O)c3cccs3)s2)s1)c1cccs1` [SNX-1837], 6.41.

The subject of a further assay is isolated neurons.
Assay: not given
As to conditions: Dugan et al., 1995; read-out: IC50 for toxicity on isolated neurons; cited from earlier work.
Take `N[C@@H](CCC(=O)O)C(=O)O` [glutamate]: the negative-log IC50 (pIC50) is 5.00 to 5.30.

Another assay concerns microglia (BV-2) cells. Description: Inhibition of microglial glutamate secretion. It is filed as cell-based.
Details: not given
As for the experimental part:
As described in Wood, glutamate efflux from microglia is dependent on the presence of added external glutamine. […] Therefore, the concentration of glutamate in the culture medium can be used directly as a measure of glutamate production by these cells.
In assaying the invention compounds, microglia (BV-2) cells were cultured using standard methods, as described in Example 4. On the day of the experiment, cells were incubated in glutamine free medium for 1 to 1.5 hours, then glutamine and test compounds, dissolved in glutamine free medium, were added. Aliquots were removed at 2 h and 4 h for glutamate analysis.
Inhibition of Microglial Glutamate Secretion
BV-2 cells were cultured in 24 well plates using Dulbeccos minimal essential medium containing 10% heat inactivated fetal bovine serum, and grown to 70-80% confluency before use. On the day of the experiment, cells were placed in glutamine free medium for 1 to 1.5 hours. […] This solution was used to replace one half of the 0.5 mL culture medium volume at the end of the glutamine free incubation. Aliquots of 10 μL medium were removed at 2 h and 4 h and placed in 96 well microtiter plates with 90 μL DMF/water (1:9) for glutamate analysis.
Turning to `[N-]=[N+]=CC(=O)CC[C@H](N)C(=O)O` [DON, 6-diazo-5-oxo-L-norleucine, reference compound], the “Glutamine dependent glutamate efflux from microglia” value is given as “inhibited”.
